Data: ChEMBL document CHEMBL6103579, “Antiproliferative activity of selenium-enriched coumarin derivatives on the SK-N-SH neuroblastoma cell line: Mechanistic insights” (Eur J Med Chem, 2025)
Calls of active or inactive are those of the source. The calls are words filed in the database; no cut-off is given here.

Experiments:
SK-N-SH [1] = assay: Downregulation of Bcl-2 expression in human SK-N-SH cells at 3 to 9 uM measured after 48 hrs by Western blot analysis; type: functional, cell-based; settings: dose 3-9 µM
N2a [2] = assay: Antitumor activity against mouse N2a cells implanted in female ICR mouse model assessed as tumor inhibition rate at 20 mg/kg, ip measured upto 8 days relative to control; type: functional; design: scale not given: the % may be the effect or the level left; settings: time <= 8 day
N2a [3] = assay: Antitumor activity against mouse N2a cells implanted in female ICR mouse model assessed as reduction in tumor weight at 20 mg/kg, ip measured upto 8 days (reference value: 0.9 +/-0.26 g); type: functional; settings: time <= 8 day
[4] = Toxicity in female ICR mouse assessed as change in organ coefficient of kidney at 20 mg/kg, ip […] (reference value: 0.007); type: organism-based; settings: in vivo
SK-N-SH [5] = assay: Downregulation of caspase-3 expression in human SK-N-SH cells at 3 to 9 uM measured after 48 hrs by Western blot analysis; type: functional, cell-based; settings: dose 3-9 µM
SK-N-SH [6] = assay: Inhibition of cell invasion in human SK-N-SH cells at 0.5 to 2 uM measured after 48 hrs by crystal violet staining based microscopic analysis; type: functional; settings: dose 0.5-2 µM
[7] = Toxicity in female ICR mouse assessed as hyperplasia in liver at 10 to 20 mg/kg, ip by H and E staining based analysis; type: organism-based; settings: in vivo, dose 10-20 mg/kg
SK-N-SH [8] = assay: Upregulation of cytochrome C level in human SK-N-SH cells at 6 uM measured after 48 hrs by immunofluorescence staining based microscopic analysis; type: functional, cell-based
SK-N-SH [9] = assay: Induction of mitochondrial dysfunction in human SK-N-SH cells assessed as appearance of ring like distribution at 6 uM measured upto 48 hrs; type: functional, cell-based
[10] = Toxicity in female ICR mouse assessed as change in organ coefficient of spleen at 10 mg/kg, ip […] (reference value: 0.006+/-0.002); type: organism-based; settings: in vivo
SK-N-SH [11] = assay: Inhibition of cell migration in human SK-N-SH cells at 2 uM measured after 48 hrs by crystal violet staining based microscopic analysis relative to control; type: functional
[12] = Toxicity in female ICR mouse assessed as appearance of homogenous renal corpuscles in kidney at 10 to 20 mg/kg, ip H and E staining based analysis; type: organism-based; settings: in vivo, dose 10-20 mg/kg
[13] = Drug localization in nucleus of human SK-N-SH cells assessed as increase in green fluorescence at 6 uM measured after 48 hrs by DAPI staining based fluorescence microscopic analysis; type: ADME, subcellular
SK-N-SH [14] = assay: Induction of mitochondrial dysfunction in human SK-N-SH cells assessed as increase in intracellular green fluorescence intensity at 3 to 9 uM; type: functional, cell-based; settings: dose 3-9 µM
SK-N-SH [15] = assay: Induction of mitochondrial dysfunction in human SK-N-SH cells assessed as increase in intracellular green fluorescence intensity at 6 uM; type: functional, cell-based; settings: time 2-48 hrs
SK-N-SH [16] = assay: Upregulation of Bax expression in human SK-N-SH cells at 3 to 9 uM measured after 48 hrs by Western blot analysis; type: functional, cell-based; settings: dose 3-9 µM
[17] = Downregulation of N-cadherin expression in human SK-N-SH cells at 6 uM measured after 48 hrs by Western blot analysis relative to control; type: functional
[18] = Toxicity in female ICR mouse assessed as change in organ coefficient of liver at 10 mg/kg, ip […] (reference value: 0.058+/-0.010); type: organism-based; settings: in vivo
[19] = Toxicity in female ICR mouse assessed as change in organ coefficient of liver at 20 mg/kg, ip […] (reference value: 0.058+/-0.010); type: organism-based; settings: in vivo
[20] = Toxicity in female ICR mouse assessed as histomorphological changes in liver at 10 to 20 mg/kg, ip H and E staining based analysis; type: organism-based; settings: in vivo, dose 10-20 mg/kg
Quadruplex DNA = assay: Binding affinity to HRCC G4 DNA (mitochondrial DNA) (unknown origin) assessed as dissociation constant by SPR analysis; type: nucleic-acid assay
[21] = Toxicity in female ICR mouse assessed as change in organ coefficient of lung at 20 mg/kg, ip […] (reference value: 0.007+/-0.001); type: organism-based; settings: in vivo
SK-N-SH [22] = assay: Upregulation of Bax/[…] ratio in human SK-N-SH cells at 3 to 9 uM measured after 48 hrs by Western blot analysis; type: functional, cell-based; settings: dose 3-9 µM
[23] = Toxicity in female ICR mouse assessed as appearance of intact glomeruli in kidney at 10 to 20 mg/kg, ip H and E staining based analysis; type: organism-based; settings: in vivo, dose 10-20 mg/kg
[24] = Antiproliferative activity against human Embryonic lung cell assessed as inhibition of cell growth incubated for 60 hrs by CCK-8 method; type: toxicity, cell-based
SK-N-SH [25] = assay: Induction of apoptosis in human SK-N-SH cells assessed as increase in apoptotic cells at 3 to 9 uM measured after 48 hrs by FITC and PI staining based flow cytometry analysis relative to control; type: functional; settings: dose 3-9 µM
SK-N-SH [26] = assay: Induction of apoptosis in human SK-N-SH cells assessed as increase in apoptotic cells measured after 48 hrs by FITC and PI staining based flow cytometry analysis; type: functional, cell-based; settings: dose 3-9 µM
[27] = Toxicity in female ICR mouse assessed as change in organ coefficient of kidney at 10 mg/kg, ip […] (reference value: 0.007); type: organism-based; settings: in vivo
SK-N-SH [28] = assay: Induction of mitochondrial dysfunction in human SK-N-SH cells assessed as appearance of fragmented mitochondria at 6 uM measured after 48 hrs by fluorescence microscopic analysis; type: functional, cell-based
SK-N-SH [29] = assay: Antiproliferative activity against human SK-N-SH cells assessed as reduction in cell proliferation at 0.5 uM incubated for 60 hrs by CCK-8 method relative to control; type: functional; design: scale not given: the % may be the effect or the level left
[30] = Toxicity in female ICR mouse assessed as change in organ coefficient of heart at 10 mg/kg, ip […] (reference value: 0.006+/-0.002); type: organism-based; settings: in vivo

Drug uptake [13]: Not_active | Kd (Quadruplex DNA): 0.0142 µM
Compound: N#C[Se]CCCOc1ccc2cc(C(=O)N3N=C(c4ccc(F)cc4)CC3c3ccc(F)cc3)c(=O)oc2c1 (stereo unspecified)
Activity (SK-N-SH [1]): Active | Activity (N2a [2]): 93.3% | Activity (N2a [3]): 0.06 g | Activity [4]: 0.008 | Activity (SK-N-SH [5]): Active | inhibition (SK-N-SH [6]): Active | Activity [7]: Non-toxic | Activity (SK-N-SH [8]): Active | Activity (SK-N-SH [9]): Active | Activity [10]: 0.006 | inhibition at 2 µM (SK-N-SH [11]): 83.2% | Activity [12]: Non-toxic | Activity (SK-N-SH [14]): Active | Activity (SK-N-SH [15]): Time-dependent-effect | Activity (SK-N-SH [16]): Active | Activity [17]: 63.1% | Activity [18]: 0.059 | Activity [19]: 0.059 | Activity [20]: Non-toxic | Activity [21]: 0.007 | Activity (SK-N-SH [22]): Active | Activity [23]: Non-toxic | Activity [24]: Non-toxic | Activity (SK-N-SH [25]): 47.4% | Activity (SK-N-SH [26]): Dose-dependent-effect | Activity [27]: 0.007 | Activity (SK-N-SH [28]): Active | Activity (SK-N-SH [29]): 24.1% | Activity [30]: 0.005
